From publication PMC5902575, “Characterization of AiiK, an AHL lactonase, from Kurthia huakui LAM0618^T and its application in quorum quenching on Pseudomonas aeruginosa PAO1” (Scientific Reports, 2018)

Biological target: T1, AiiK (Kurthia huakuii, UniProt Z9B3F0ZFT1)
T1 construct: primer-encoded N-terminus MCQNKKLY
Assay: HPLC of remaining AHL at […] nm, Michaelis-Menten fit
Type: biochemical
Settings: 10 mM PBS pH 7.4, 25 °C, 10 min, 4 μg/mL enzyme, 25–150 μM substrate; unit given as mM^−1 in the source; unit of the source corrected

T1 sequence (Z9B3F0ZFT1 1-278 limits assumed): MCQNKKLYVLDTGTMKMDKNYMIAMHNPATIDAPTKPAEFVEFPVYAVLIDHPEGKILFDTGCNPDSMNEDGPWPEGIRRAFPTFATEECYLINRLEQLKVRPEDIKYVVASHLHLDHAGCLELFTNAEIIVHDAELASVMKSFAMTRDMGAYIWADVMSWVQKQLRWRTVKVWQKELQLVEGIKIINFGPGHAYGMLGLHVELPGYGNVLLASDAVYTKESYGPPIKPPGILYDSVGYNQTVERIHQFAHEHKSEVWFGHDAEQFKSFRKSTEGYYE

| Mean ± SD / Km(mM^-1) [mM] | SMILES |
| --- | --- |
| 0.066 ± 0.02 | CCCC(=O)CC(=O)N[C@H]1CCOC1=O [3-Oxo-C6-HSL] |
| 0.204 ± 0.031 | CCCCCC(=O)N[C@H]1CCOC1=O [C6-HSL] |
| 0.315 ± 0.065 | CCCCCCCCCC(=O)N[C@H]1CCOC1=O [C10-HSL] |
| 0.036 ± 0.004 | CCCCCCCCCCCCCC(=O)N[C@H]1CCOC1=O [C14-HSL] |
